In patent US11978600B2, “Dielectric-insulation or arc-extinction fluid” (HITACHI ENERGY LTD, priority 2019, dated 2024):

What was measured:
[1] = Decomposition rate under partial discharge in the presence of oxygen; assay type: physicochemical; settings: gas mixture with O2 and CO2 (4 vol.-% 2-C4HF7, 4 vol.-% O2, 92 vol.-% CO2); needle-plane electrodes, positive DC 0-35 kV
Method: The decomposition rate of 2-C4HF7 in a gas mixture containing carbon dioxide and oxygen were tested. Specifically, a gas mixture containing 4 vol.-% 2-C4HF7, 4 vol.-% O2 and 92 vol.-% CO2 was subjected to partial discharge tests and the resulting decomposition was determined.
Specifically, an experimental setup consisting of a standard GIS-vessel (volume: 55 L) with a needle-plane electrode arrangement was used. A total of ten steel needles (R_100 μm) were connected to a high voltage DC power supply (positive, 0-35 kV). The gap spacing was set to 10 mm. The vessel was equipped with a fan keeping the gas mixture homogeneous during the experiments.

[2] = Dielectric withstand test (breakdown voltage, step DC, uniform field); assay type: physicochemical
Method: In addition to these tests, the dielectric strength of a mixture containing a monohydrofluoroolefin according to various embodiments, specifically 2-C4HF7, and having a dew point of −5° C. and −30° C., respectively, was determined and compared to the respective dielectric strength of the perfluoroketone decafluoro-3-methylbutan-2-one (“C5”).
Specifically, dielectric withstand tests were performed under DC (step DC, rise-time 300 ns, maximum application time 30 s) in a small vessel (6 L) and custom-built for dielectric testing. Large electrodes (12 cm diameter) with a Rogowski-profile and separated by a small (1.0 cm) distance were used to obtain a uniform field. Prior to the test, the electrodes were sandblasted to create a uniform surface roughness profile (Rt=40 μm).
A large amount of measurements (typically, more than 100) of measurements were performed; the peak voltage level used for each voltage application was randomly selected in the region close to U50, the voltage level for which a 50% breakdown probability is expected. The outcome (breakdown or hold) of each measurement is extracted from the time-dependence of the voltage across the test object. A probit regression is then used to fit the results to a probability distribution and to extract U50 and s, the width of the breakdown probability distribution, from the measurement data.

Structure (SMILES)	decomposition rate under partial discharge [1]	breakdown voltage ([2]; negative direct current, mixture, partial pressure 228 mbar at 20° C.)	breakdown voltage ([2]; positive direct current, mixture, partial pressure 228 mbar at 20° C.)	breakdown voltage ([2]; negative direct current, mixture with O2 and CO2, dew point -5° C.)	breakdown voltage ([2]; negative direct current, mixture with O2 and CO2, dew point -30° C.)	breakdown voltage ([2]; positive direct current, mixture with O2 and CO2, dew point -5° C.)	breakdown voltage ([2]; positive direct current, mixture with O2 and CO2, dew point -30° C.)
FC(=C(F)C(F)(F)F)C(F)(F)F [2-C4F8, octafluorobutene]	7 mmol/C	17.5 kV/mm	17.7 kV/mm	–	–	–	–
O=C(C(F)(F)F)C(F)(C(F)(F)F)C(F)(F)F [C5, 1,1,1,3,4,4,4-heptafluoro-3-(trifluoromethyl)-butan-2-one]	–	–	–	19.2 kV/mm	16.5 kV/mm	19.7 kV/mm	16.9 kV/mm
